According to patent publication US20110212972A1, “Compositions and Methods for Treating Female Sexual Dysfunction” (Pfizer Inc, priority 2000, published 2011):

Experiments:
MCF-7 cells = test: Inhibition of in vitro human breast tumor cell growth, ER-positive MCF-7; assay type: cell-based; settings: MCF-7 (ER-positive), 6 days incubation, direct cell counts
Experimental: (§1) The in vitro antiproliferative effects of (−)-cis-6-phenyl-5-[4-(2-pyrrolidin-1-yl-ethoxy)-phenyl]-5,6,7,8-tetrahydro-naphthalene-2-ol (PPTN) were tested using two types of human breast cancer cell lines: first, MCF-7 cells, which contain ER as well as progesterone receptors (PgR), and second, MDA-MB-231 cells, which lack ER and PgR, and enable the determination of an effect that is independent of the ER mechanism. The effect of PPTN on the growth of these different cell lines was determined by incubation of the cells with various compound concentrations for 6 days.
(§2) The antiproliferative effects were then determined by direct cell counts.

MDA-MB-231 cells = test: Inhibition of in vitro human breast tumor cell growth, ER-negative MDA-MB-231; assay type: cell-based; settings: MDA-MB-231 (ER-negative), 6 days incubation, direct cell counts
Experimental: as §1, §2

In the case of Oc1ccc2c(c1)CC[C@H](c1ccccc1)[C@@H]2c1ccc(OCCN2CCCC2)cc1 [PPTN, (−)-cis-6-phenyl-5-[4-(2-pyrrolidin-1-yl-ethoxy)-phenyl]-5,6,7,8-tetrahydro-naphthalene-2-ol], the “IC50 for growth inhibition” value (MCF-7 cells) is reported as 3 to 5×10^−11 M, the “effect on cell growth” value (MCF-7 cells) is reported as “inhibited the growth” and the “effect on cell proliferation” value (MDA-MB-231 cells) is reported as “did not inhibit cell proliferation”.
